The NIST ThermoML archive (doi:10.1016/j.jct.2004.12.014)

How the values were obtained:
[1] = 318.15 K; 101.33 kPa; Liquid
[2] = refractive index (Na D-line) (dimensionless); details: 318.15 K; 101.33 kPa; Liquid; Standard Abbe refractometry
[3] = excess molar enthalpy (molar enthalpy of mixing); xn = mol fraction of the nth substance listed; details: 318.15 K, 101 kPa, Liquid
[4] = xn = mol fraction of the nth substance listed; details: 318.15 K, 101 kPa, Liquid

CCCOC(=O)CC [propyl propanoate]
Details | mass density [kg/m3] | refractive index
[1] | 854.57 | –
[2] | – | 1.3809

CCCCOC(=O)CC [butyl propanoate]
Details | mass density [kg/m3] | refractive index
[1] | 851.33 | –
[2] | – | 1.3895

CCOC(=O)CC [ethyl propanoate]
Details | mass density [kg/m3] | refractive index
[1] | 860.98 | –
[2] | – | 1.3711

CCCCCOC(=O)CC [pentyl propanoate]
Details | mass density [kg/m3]
[1] | 848.98

CCOC(=O)CC [ethyl propanoate] + CCCCCCCCC
Details | excess molar enthalpy, [3] [kJ/mol] | excess molar volume, [4] [m3/mol]
x1 = 0.0376 | – | 1.65e-07
x1 = 0.0817 | 0.385 | –
x1 = 0.0926 | – | 3.58e-07
x1 = 0.1719 | 0.705 | –
x1 = 0.1744 | – | 6.18e-07
x1 = 0.2554 | – | 8.2e-07
x1 = 0.2598 | 0.967 | –
x1 = 0.3255 | – | 9.43e-07
x1 = 0.3403 | 1.14 | –
x1 = 0.3925 | – | 1.022e-06
x1 = 0.4145 | 1.24 | –
x1 = 0.457 | – | 1.075e-06
x1 = 0.4797 | 1.29 | –
x1 = 0.4909 | 1.3 | –
x1 = 0.523 | – | 1.077e-06
x1 = 0.5379 | 1.3 | –
x1 = 0.5764 | 1.27 | –
x1 = 0.5826 | – | 1.066e-06
x1 = 0.5876 | 1.27 | –
x1 = 0.6277 | 1.22 | –
x1 = 0.6348 | – | 1.027e-06
x1 = 0.6791 | 1.13 | –
x1 = 0.6882 | – | 9.47e-07
x1 = 0.732 | 1.02 | –
x1 = 0.7398 | – | 8.52e-07
x1 = 0.7883 | 0.866 | 7.57e-07
x1 = 0.8344 | – | 6.26e-07
x1 = 0.8451 | 0.68 | –
x1 = 0.878 | – | 5.01e-07
x1 = 0.9016 | 0.464 | –
x1 = 0.9181 | – | 3.41e-07
x1 = 0.9517 | 0.247 | –
x1 = 0.9584 | – | 1.81e-07

CCC(=O)OC [methyl propanoate]
Details | mass density [kg/m3] | refractive index
[1] | 884.6 | –
[2] | – | 1.3641

CCCCCCCCCCCCCCCCC [heptadecane] + CCOC(=O)CC
Details | excess molar enthalpy [kJ/mol] | excess molar volume [m3/mol]
[3], x2 = 0.1049 | 0.523 | –
[3], x2 = 0.213 | 0.969 | –
[3], x2 = 0.3031 | 1.3 | –
[3], x2 = 0.3846 | 1.53 | –
[3], x2 = 0.4607 | 1.68 | –
[3], x2 = 0.5315 | 1.76 | –
[3], x2 = 0.5885 | 1.76 | –
[3], x2 = 0.6272 | 1.73 | –
[3], x2 = 0.6888 | 1.62 | –
[3], x2 = 0.7229 | 1.52 | –
[3], x2 = 0.7635 | 1.4 | –
[3], x2 = 0.8055 | 1.24 | –
[3], x2 = 0.8479 | 1.06 | –
[3], x2 = 0.8897 | 0.846 | –
[3], x2 = 0.9313 | 0.577 | –
[3], x2 = 0.9727 | 0.262 | –
[4], x2 = 0.066 | – | 2.51e-07
[4], x2 = 0.1449 | – | 5.19e-07
[4], x2 = 0.2675 | – | 8.82e-07
[4], x2 = 0.3677 | – | 1.105e-06
[4], x2 = 0.4535 | – | 1.215e-06
[4], x2 = 0.5272 | – | 1.268e-06
[4], x2 = 0.5954 | – | 1.278e-06
[4], x2 = 0.6524 | – | 1.237e-06
[4], x2 = 0.7503 | – | 1.094e-06
[4], x2 = 0.7915 | – | 9.93e-07
[4], x2 = 0.8304 | – | 8.71e-07
[4], x2 = 0.8626 | – | 7.59e-07
[4], x2 = 0.8973 | – | 6.31e-07
[4], x2 = 0.9257 | – | 4.92e-07
[4], x2 = 0.9523 | – | 3.54e-07
[4], x2 = 0.9771 | – | 1.83e-07

CCCCCCCCCCC [undecane] + CCOC(=O)CC
Details | excess molar enthalpy [kJ/mol] | excess molar volume [m3/mol]
[3], x2 = 0.0755 | 0.383 | –
[3], x2 = 0.1612 | 0.705 | –
[3], x2 = 0.2482 | 0.997 | –
[3], x2 = 0.3331 | 1.21 | –
[3], x2 = 0.4028 | 1.34 | –
[3], x2 = 0.4629 | 1.41 | –
[3], x2 = 0.5094 | 1.43 | –
[3], x2 = 0.5483 | 1.42 | –
[3], x2 = 0.5806 | 1.41 | –
[3], x2 = 0.6255 | 1.36 | –
[3], x2 = 0.6622 | 1.3 | –
[3], x2 = 0.7018 | 1.22 | –
[3], x2 = 0.7511 | 1.09 | –
[3], x2 = 0.7996 | 0.94 | –
[3], x2 = 0.8514 | 0.741 | –
[3], x2 = 0.9026 | 0.523 | –
[3], x2 = 0.9521 | 0.279 | –
[4], x2 = 0.0488 | – | 2.1e-07
[4], x2 = 0.1093 | – | 4.32e-07
[4], x2 = 0.1996 | – | 6.94e-07
[4], x2 = 0.2885 | – | 9.21e-07
[4], x2 = 0.3652 | – | 1.049e-06
[4], x2 = 0.4355 | – | 1.121e-06
[4], x2 = 0.5015 | – | 1.154e-06
[4], x2 = 0.5629 | – | 1.147e-06
[4], x2 = 0.621 | – | 1.119e-06
[4], x2 = 0.6752 | – | 1.071e-06
[4], x2 = 0.7242 | – | 9.82e-07
[4], x2 = 0.7714 | – | 8.93e-07
[4], x2 = 0.816 | – | 7.79e-07
[4], x2 = 0.8558 | – | 6.55e-07
[4], x2 = 0.895 | – | 5.1e-07
[4], x2 = 0.9301 | – | 3.49e-07
[4], x2 = 0.9671 | – | 2.01e-07

CCCCCCCCCCCCC [tridecane] + CCC(=O)OC
Details | excess molar enthalpy [kJ/mol] | excess molar volume [m3/mol]
[3], x2 = 0.1102 | 0.634 | –
[3], x2 = 0.2079 | 1.1 | –
[3], x2 = 0.298 | 1.46 | –
[3], x2 = 0.3751 | 1.7 | –
[3], x2 = 0.4404 | 1.84 | –
[3], x2 = 0.4912 | 1.91 | –
[3], x2 = 0.5388 | 1.94 | –
[3], x2 = 0.5843 | 1.95 | –
[3], x2 = 0.624 | 1.92 | –
[3], x2 = 0.6309 | 1.91 | –
[3], x2 = 0.6687 | 1.84 | –
[3], x2 = 0.7093 | 1.73 | –
[3], x2 = 0.7493 | 1.6 | –
[3], x2 = 0.7925 | 1.41 | –
[3], x2 = 0.8368 | 1.18 | –
[3], x2 = 0.8813 | 0.938 | –
[3], x2 = 0.9269 | 0.636 | –
[3], x2 = 0.9664 | 0.318 | –
[4], x2 = 0.0687 | – | 3.33e-07
[4], x2 = 0.1431 | – | 6.43e-07
[4], x2 = 0.2538 | – | 1.057e-06
[4], x2 = 0.3537 | – | 1.323e-06
[4], x2 = 0.4366 | – | 1.462e-06
[4], x2 = 0.5144 | – | 1.543e-06
[4], x2 = 0.5811 | – | 1.548e-06
[4], x2 = 0.6387 | – | 1.514e-06
[4], x2 = 0.6932 | – | 1.429e-06
[4], x2 = 0.7403 | – | 1.32e-06
[4], x2 = 0.7836 | – | 1.217e-06
[4], x2 = 0.8229 | – | 1.075e-06
[4], x2 = 0.8583 | – | 9.26e-07
[4], x2 = 0.8914 | – | 7.83e-07
[4], x2 = 0.9212 | – | 6.29e-07
[4], x2 = 0.9596 | – | 4.05e-07
[4], x2 = 0.9748 | – | 2.5e-07
